Data reported in patent US20070027150A1 (priority 2005, published 2007).

Biological target: His-tagged N-terminal ATP binding domain (amino acid residues 9-236) of HSP90α (Homo sapiens, UniProt P07900)
Experiment: HSP90 inhibitor binding potency: TRF competition binding assay
Conditions: Table I; read-out: Hsp90 IC50 Range
Method in brief: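 Competition against biotinylated radicicol for binding to the His-tagged 9-236 ATP domain of HSP90α: 2 h, room temperature, HEPES/MgCl2/KCl/BSA buffer. Streptavidin capture, then europium-labeled anti-His antibody and enhancement solution; europium counts give IC50.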

IC50	Compound
< 1000 nM	Cc1nc(N)nc2c1C(=O)CC(c1ccc(F)cc1-c1cccnc1F)C2 (stereo not shown) [Compound 87, 2-amino-7-[4-fluoro-2-(2-fluoropyridin-3-yl)phenyl]-4-methyl-7,8-dihydroquinazolin-5(6H)-one]
< 1000 nM	Cc1nc(N)nc2c1C(=O)CC(c1ccccc1-c1cccc(F)c1)C2 (stereo not shown) [Compound 52, 2-amino-7-(3′-fluoro-1,1′-biphenyl-2-yl)-4-methyl-7,8-dihydroquinazolin-5(6H)-one]
1000 to 10000 nM	COc1ccc(-c2ccccc2C2CC(=O)c3c(C)nc(N)nc3C2)cn1 (stereo not shown) [Compound 74, 2-amino-7-[2-(6-methoxypyridin-3-yl)phenyl]-4-methyl-7,8-dihydroquinazolin-5(6H)-one]
< 1000 nM	Cc1nc(N)nc2c1C(=O)CC(c1ccccc1-c1ccsc1)C2 (stereo not shown) [Compound 46, 2-amino-4-methyl-7-(2-thien-3-ylphenyl)-7,8-dihydroquinazolin-5(6H)-one]
< 1000 nM	Cc1ccc(F)c(-c2ccccc2C2CC(=O)c3c(C)nc(N)nc3C2)c1 (stereo not shown) [Compound 76, 2-amino-7-(2′-fluoro-5′-methyl-1,1′-biphenyl-2-yl)-4-methyl-7,8-dihydroquinazolin-5(6H)-one]
1000 to 10000 nM	COc1ccc(C2CC(=O)c3c(C)nc(N)nc3C2)cc1 (stereo not shown) [Compound 2, 2-amino-7-(4-methoxyphenyl)-4-methyl-7,8-dihydroquinazolin-5(6H)-one]
< 1000 nM	Cc1nc(N)nc2c1C(=O)CC(c1ccccc1-c1ccc(F)cn1)C2 (stereo not shown) [Compound 123, 2-amino-7-[2-(5-fluoropyridin-2-yl)phenyl]-4-methyl-7,8-dihydroquinazolin-5(6H)-one]
< 1000 nM	COc1ccccc1-c1cc(F)ccc1C1CC(=O)c2c(C)nc(N)nc2C1 (stereo not shown) [Compound 95, 2-amino-7-(5-fluoro-2′-methoxy-biphenyl-2-yl)-4-methyl-7,8-dihydro-6H-quinazolin-5-one]
> 10000 nM	Cc1nc(N)nc2c1C(=O)CC(c1cccc(-c3ccccn3)c1)C2 (stereo not shown) [Compound 28, 2-amino-4-methyl-7-(3-pyridin-2-ylphenyl)-7,8-dihydroquinazolin-5(6H)-one]
< 1000 nM	COc1cccc(-c2cn(C)nc2C2CC(=O)c3c(C)nc(N)nc3C2)n1 (stereo not shown) [Compound 127, 2-amino-7-[4-(6-methoxy-pyridin-2-yl)-1-methyl-1H-pyrazol-3-yl]-4-methyl-7,8-dihydro-6H-quinazolin-5-one]
1000 to 10000 nM	Cc1nc(N)nc2c1C(=O)CC(c1cccnc1-c1nccs1)C2 (stereo not shown) [Compound 36, 2-amino-4-methyl-7-[2-(1,3-thiazol-2-yl)pyridin-3-yl]-7,8-dihydroquinazolin-5(6H)-one]
< 1000 nM	Cc1nc(N)nc2c1C(=O)CC(c1ccccc1-c1cccc(F)n1)C2 (stereo not shown) [Compound 122, 2-amino-7-[2-(6-fluoropyridin-2-yl)phenyl]-4-methyl-7,8-dihydroquinazolin-5(6H)-one]

Further lines, the molecule ahead of its results:

Compound	IC50
Cc1nc(N)nc2c1C(=O)CC(c1ccccc1OC(C)C)C2 (stereo not shown) [Compound 149, 2-amino-7-(2-isopropoxy-phenyl)-4-methyl-7,8-dihydro-6H-quinazolin-5-one]	< 1000 nM
COc1ccncc1-c1ccccc1C1CC(=O)c2c(C)nc(N)nc2C1 (stereo not shown) [Compound 72, 2-amino-7-[2-(4-methoxypyridin-3-yl)phenyl]-4-methyl-7,8-dihydroquinazolin-5(6H)-one]	1000 to 10000 nM
COC(=O)c1cccc(-c2ccccc2C2CC(=O)c3c(C)nc(N)nc3C2)c1 (stereo not shown) [Compound 104, methyl 2′-(2-amino-4-methyl-5-oxo-5,6,7,8-tetrahydroquinazolin-7-yl)-1,1′-biphenyl-3-carboxylate]	> 10000 nM
Cc1nc(N)nc2c1C(=O)CC(c1ccccc1-c1c(C)noc1C)C2 (stereo not shown) [Compound 59, 2-amino-7-[2-(3,5-dimethylisoxazol-4-yl)phenyl]-4-methyl-7,8-dihydroquinazolin-5(6H)-one]	1000 to 10000 nM
Cc1nc(N)nc2c1C(=O)CC(c1ccccc1-c1cccc(C(F)(F)F)c1)C2 (stereo not shown) [Compound 110, 2-amino-4-methyl-7-[3′-(trifluoromethyl)-1,1′-biphenyl-2-yl]-7,8-dihydroquinazolin-5(6H)-one]	1000 to 10000 nM
Cc1nc(N)nc2c1C(=O)CC(c1c(Br)cnn1C)C2 (stereo not shown) [Compound 10, 2-amino-7-(4-bromo-2-methyl-2H-pyrazol-3-yl)-4-methyl-7,8-dihydro-6H-quinazolin-5-one]	> 10000 nM
Cc1nc(N)nc2c1C(=O)CC(c1ccccc1-c1cccc3[nH]ccc13)C2 (stereo not shown) [Compound 128, 2-amino-7-[2-(1H-indol-4-yl)phenyl]-4-methyl-7,8-dihydroquinazolin-5(6H)-one]	< 1000 nM
Cc1nc(N)nc2c1C(=O)CC(c1ccccc1-c1cccc(C(N)=O)c1)C2 (stereo not shown) [Compound 91, 2′-(2-amino-4-methyl-5-oxo-5,6,7,8-tetrahydroquinazolin-7-yl)-1,1′-biphenyl-3-carboxamide]	1000 to 10000 nM

Same assay, conditions: Table II; read-out: Hsp90 IC50 Range

IC50	Compound
< 1000 nM	COc1cccc(-c2cccc(F)c2C2CC(=O)c3c(C)nc(N)nc3C2)n1 (stereo not shown) [Compound 220, 2-amino-7-[2-fluoro-6-(6-methoxy-pyridin-2-yl)-phenyl]-4-methyl-7,8-dihydro-6H-quinazolin-5-one]
< 1000 nM	COc1ccccc1-c1scnc1C1CC(=O)c2c(C)nc(N)nc2C1 (stereo not shown) [Compound 301, 2-amino-7-[5-(2-methoxy-phenyl)-thiazol-4-yl]-4-methyl-7,8-dihydro-6H-quinazolin-5-one]
1000 to 10000 nM	Cc1nc(N)nc2c1C(=O)CC(c1cc(F)ccc1Br)C2 (stereo not shown) [Compound 238, 2-amino-7-(2-bromo-5-fluoro-phenyl)-4-methyl-7,8-dihydro-6H-quinazolin-5-one]
< 1000 nM	Cc1nc(N)nc2c1C(=O)CC(c1ncsc1-c1cccc(F)n1)C2 (stereo not shown) [Compound 294, 2-amino-7-[5-(6-fluoro-pyridin-2-yl)-thiazol-4-yl]-4-methyl-7,8-dihydro-6H-quinazolin-5-one]
1000 to 10000 nM	COc1ccc(F)c(-c2cc(F)ccc2[C@H]2CC(=O)c3c(C)nc(N)nc3C2)n1 [Compound 314, (R)-2-amino-7-[4-fluoro-2-(3-fluoro-6-methoxy-pyridin-2-yl)-phenyl]-4-methyl-7,8-dihydro-6H-quinazolin-5-one]
< 1000 nM	Cc1nc(N)nc2c1C(=O)CC(c1ccc(F)cc1-c1cncc(Cl)n1)C2 (stereo not shown) [Compound 219, 2-amino-7-[2-(6-chloro-pyrazin-2-yl)-4-fluoro-phenyl]-4-methyl-7,8-dihydro-6H-quinazolin-5-one]
< 1000 nM	COc1nc(-c2cc(F)ccc2C2CC(=O)c3c(C)nc(N)nc3C2)cnc1N (stereo not shown) [Compound 232, 2-amino-7-[2-(5-amino-6-methoxy-pyrazin-2-yl)-4-fluoro-phenyl]-4-methyl-7,8-dihydro-6H-quinazolin-5-one]
< 1000 nM	Cc1nc(N)nc2c1C(=O)CC(c1nccn1-c1ccccc1F)C2 (stereo not shown) [Compound 188, 2-amino-7-[1-(2-fluoro-phenyl)-1H-imidazol-2-yl]-4-methyl-7,8-dihydro-6H-quinazolin-5-one]
< 1000 nM	COc1nc(-c2cc(F)ccc2[C@@H]2CC(=O)c3c(C)nc(N)nc3C2)ncc1F [Compound 230, (S)-2-amino-7-[4-fluoro-2-(5-fluoro-4-methoxy-pyrimidin-2-yl)-phenyl]-4-methyl-7,8-dihydro-6H-quinazolin-5-one]
< 1000 nM	COc1nc(Cl)ncc1-c1cc(F)ccc1C1CC(=O)c2c(C)nc(N)nc2C1 (stereo not shown) [Compound 273, 2-amino-7-[2-(2-chloro-4-methoxy-pyrimidin-5-yl)-4-fluoro-phenyl]-4-methyl-7,8-dihydro-6H-quinazolin-5-one]

More lines, now with the values behind:

Compound	IC50
CCc1nc(N)nc2c1C(=O)CC(c1ccc(F)cc1-c1cncc(OC)n1)C2 (stereo not shown) [Compound 325, 2-amino-4-ethyl-7-[4-fluoro-2-(6-methoxy-pyrazin-2-yl)-phenyl]-7,8-dihydro-6H-quinazolin-5-one]	< 1000 nM
CC(=O)Nc1cccc(Cc2nc(N)nc3c2C(=O)CC(c2ccccc2)C3)c1 (stereo not shown) [Compound 310, N-[3-(2-amino-5-oxo-7-phenyl-5,6,7,8-tetrahydro-quinazolin-4-ylmethyl)-phenyl]-acetamide]	> 10000 nM
Nc1nc(Cc2ccc(F)cc2)c2c(n1)CC(c1ccccc1)CC2=O (stereo not shown) [Compound 307, 2-amino-4-(4-fluoro-benzyl)-7-phenyl-7,8-dihydro-6H-quinazolin-5-one]	1000 to 10000 nM
COCc1nc(N)nc2c1C(=O)CC(c1ccccc1)C2 (stereo not shown) [Compound 211, 2-amino-4-methoxymethyl-7-phenyl-7,8-dihydro-6H-quinazolin-5-one]	> 10000 nM
COc1ccc(Br)c(C2CC(=O)c3c(C)nc(N)nc3C2)c1 (stereo not shown) [Compound 239, 2-amino-7-(2-bromo-5-methoxy-phenyl)-4-methyl-7,8-dihydro-6H-quinazolin-5-one]	1000 to 10000 nM
Cc1nc(N)nc2c1C(=O)CC(c1ccccc1S(=O)(=O)N1CCCC1)C2 (stereo not shown) [Compound 184, 2-amino-4-methyl-7-[2-(pyrrolidine-1-sulfonyl)-phenyl]-7,8-dihydro-6H-quinazolin-5-one]	1000 to 10000 nM
Cc1nc(N)nc2c1C(=O)CC(c1c(-c3cccnc3F)cnn1Cc1ccccc1)C2 (stereo not shown) [Compound 215, 2-amino-7-[2-benzyl-4-(2-fluoro-pyridin-3-yl)-2H-pyrazol-3-yl]-4-methyl-7,8-dihydro-6H-quinazolin-5-one]	1000 to 10000 nM
CCc1nc(N)nc2c1C(=O)CC(c1ccc(F)cc1-c1cccnc1)C2 (stereo not shown) [Compound 318, 2-amino-4-ethyl-7-(4-fluoro-2-pyridin-3-yl-phenyl)-7,8-dihydro-6H-quinazolin-5-one]	< 1000 nM
Nc1ncc2c(n1)CC(c1ccccc1-c1cccnc1F)CC2=O (stereo not shown) [Compound 243, 2-amino-7-[2-(2-fluoro-pyridin-3-yl)-phenyl]-7,8-dihydro-6H-quinazolin-5-one]	< 1000 nM
Cc1nc(N)nc2c1C(=O)CC(c1ccccc1S(=O)(=O)C(C)(C)C)C2 (stereo not shown) [Compound 182, 2-amino-4-methyl-7-[2-(2-methyl-propane-2-sulfonyl)-phenyl]-7,8-dihydro-6H-quinazolin-5-one]	< 1000 nM
